# Values quoted from earlier work in the PKSmart pharmacokinetics tables (Seal et al. 2025).
# Test: Lombardo, Berellini, Obach 2018, Drug Metab Dispos 46:1466, doi 10.1124/dmd.118.082966
# Settings: human; for MRT / Vd / clearance / half-life: in vivo, iv; for fraction unbound: plasma
Structure (SMILES),MRT,Vd,clearance,half-life,fraction unbound
COCCn1c2c([n+](Cc3cnccn3)c1C)C(=O)c1ccccc1C2=O,34.5 h,23.7 L/kg,11.3 mL/min/kg,24.8 h,
CNCC[C@H](Oc1cccc2ccccc12)c1cccs1,,,8.57 mL/min/kg,12 h,0.04
Cn1c(COP(=O)(NCCBr)NCCBr)cnc1[N+](=O)[O-],0.72 h,0.64 L/kg,14.8 mL/min/kg,1 h,
C=Cc1c(C)c2[nH]c1=Cc1[nH]c(c(=CCC(=O)O)c1C)=Cc1[nH]c(c(C)c1CCC(=O)OC)C=C1NC(=C3C=CC(C(=O)OC)=C(C(=O)OC)[C@@]13C)C=2,6.6 h,0.63 L/kg,1.6 mL/min/kg,5.6 h,
Cc1ccc(N(CC2=NCCN2)c2cccc(O)c2)cc1,,,42 mL/min/kg,2.5 h,
O=c1ccc2ccccc2o1,0.78 h,1.1 L/kg,23.6 mL/min/kg,0.8 h,0.17
CN1CC[C@]23CCCC[C@H]2[C@H]1Cc1ccc(O)cc13,12.2 h,11.5 L/kg,15.7 mL/min/kg,13.5 h,0.6
CCOC(=O)C1=C(C)NC(C)=C(C(=O)OC)C1c1cccc([N+](=O)[O-])c1 (stereo not drawn),4.1 h,6.1 L/kg,25 mL/min/kg,8.2 h,0.02
CC(=O)Nc1ccc(OC[C@H](O)CNC(C)C)cc1,,,2.28 mL/min/kg,12.2 h,0.93
CCCCC[C@H](O)/C=C/[C@@H]1C(CCCCCCC(=O)O)C(=O)C[C@H]1O (stereo partly drawn),0.9 h,2.4 L/kg,45.4 mL/min/kg,1.9 h,
Cn1cncc1[C@@](N)(c1ccc(Cl)cc1)c1ccc2c(c1)c(-c1cccc(Cl)c1)cc(=O)n2C,3.07 h,0.93 L/kg,5.03 mL/min/kg,2.52 h,0.006
C[C@@H](Oc1cc(-c2cnn(C3CCNCC3)c2)cnc1N)c1c(Cl)ccc(F)c1Cl,,,,,0.09
CC[C@@H](c1cccc(O)c1)[C@@H](C)CN(C)C,3.62 h,4.64 L/kg,21.3 mL/min/kg,2.39 h,
COc1cc([S+](C)O)ccc1-c1nc2ncccc2[n-]1 (stereo not drawn),1 h,0.62 L/kg,10 mL/min/kg,0.8 h,0.41
COc1ccccc1Oc1c(NS(=O)(=O)c2ccc(C)cn2)nc(-c2ccnc(-c3nnn[nH]3)c2)nc1OCCO,0.4 h,0.23 L/kg,10.5 mL/min/kg,2.6 h,0.02
C=CCC1(C(C)C#CCC)C(=O)NC(=O)N(C)C1=O (stereo not drawn),1.5 h,1.1 L/kg,12 mL/min/kg,1.6 h,0.27
CC(NC(CCc1ccccc1)C(=O)O)C(=O)N1CCCC1C(=O)O (stereo not drawn),4 h,0.38 L/kg,1.6 mL/min/kg,39 h,
CCCCCc1cc(O)c2c(c1)OC(C)(C)[C@@H]1CCC(C)=C[C@@H]21,46 h,8.9 L/kg,3.2 mL/min/kg,33 h,0.05
OCCO[C@H]1C[C@@H](n2nnc3c(N[C@@H]4C[C@H]4c4ccc(F)c(F)c4)nc(S)nc32)[C@H](O)[C@@H]1O,6.16 h,1.25 L/kg,3.38 mL/min/kg,6.8 h,0.002
NCCCCC(NC(=O)C(Cc1cc(Br)c(O)c(Br)c1)NC(=O)N1CCC(N2Cc3ccccc3NC2=O)CC1)C(=O)N1CCN(c2ccncc2)CC1 (stereo not drawn),1.9 h,0.31 L/kg,2.6 mL/min/kg,2.5 h,
C[C@H](Cc1cc2c(c(C(N)=O)c1)N(CCCO)CC2)NCCOc1ccccc1OCC(F)(F)F,,,2.8 mL/min/kg,3.6 h,0.05
NCCNc1ccc(NCCN)c2c1C(=O)c1ccncc1C2=O,8.9 h,10.1 L/kg,17.7 mL/min/kg,13.4 h,
CON=C(C(=O)NC1C(=O)N2C(C(=O)O)=C(C)CS[C@H]12)c1csc(N)n1 (stereo partly drawn),2.5 h,0.28 L/kg,1.9 mL/min/kg,2.1 h,0.78

Structure (SMILES),MRT,Vd,clearance,half-life,fraction unbound
NS(=O)(=O)c1cc(C2(O)NC(=O)c3ccccc32)ccc1Cl (stereo not drawn),43 h,3.9 L/kg,1.5 mL/min/kg,36 h,
Cn1nnnc1SCC1=C(C(=O)O)N2C(=O)C(=NC(=O)C(NOCC(=O)O)c3cc[nH]n3)[C@H]2SC1 (stereo partly drawn),1.8 h,0.22 L/kg,1.83 mL/min/kg,1.33 h,
COc1ccc2c(c1OC)C(=O)O[C@@H]2[C@H]1c2c(cc3c(c2OC)OCO3)CCN1C,2.28 h,2.3 L/kg,16.9 mL/min/kg,2.13 h,
CCn1cnc(C(=O)NC)c1C(=O)NC,1 h,0.73 L/kg,12.1 mL/min/kg,0.83 h,0.92
Nc1nc2[nH]cc(CCc3ccc(C(=O)NC(CCC(=O)O)C(=O)O)cc3)c2c(=O)[nH]1 (stereo not drawn),1.92 h,0.15 L/kg,1.3 mL/min/kg,1.85 h,
CN1[C@@H]2CCC[C@H]1C[C@@H](NC(=O)c1nn(C)c3ccccc13)C2,6.7 h,3.7 L/kg,9.1 mL/min/kg,5.2 h,
CN(CCCCCCN(C)C(=O)Oc1ccc[n+](C)c1)C(=O)Oc1ccc[n+](C)c1,82.4 h,1 L/kg,0.2 mL/min/kg,59.8 h,
COc1cccc(OC)c1C(=O)NC1C(=O)N2C(C(=O)O)C(C)(C)S[C@H]12 (stereo partly drawn),0.8 h,0.32 L/kg,6.6 mL/min/kg,0.64 h,0.43
CNC(=O)C(c1ccccc1)N1CCc2cc(OC)c(OC)cc2[C@@H]1CCc1ccc(C(F)(F)F)cc1 (stereo partly drawn),15.9 h,9.75 L/kg,10.2 mL/min/kg,34.3 h,
CCCCc1nc(Cl)c(CO)n1Cc1ccc(-c2ccccc2-c2nnn[nH]2)cc1,0.75 h,0.37 L/kg,8.2 mL/min/kg,1.8 h,
CCC(=O)NC[C@@H]1C[C@H]1c1cccc2c1CCO2,0.62 h,0.33 L/kg,9.04 mL/min/kg,0.75 h,
C=CCc1ccccc1OCC(O)CNC(C)C (stereo not drawn),3.6 h,3.2 L/kg,15 mL/min/kg,2.5 h,
O=C(O)CCCSCCN1C(=O)CC[C@@H]1/C=C/[C@@H](O)Cc1ccc(F)cc1,0.51 h,0.48 L/kg,15.8 mL/min/kg,0.38 h,
COc1cc(C(=O)C(=O)N2CCCCC2C(=O)OC(CCCc2cccnc2)CCCc2cccnc2)cc(OC)c1OC (stereo not drawn),2.62 h,1.34 L/kg,8.5 mL/min/kg,1.1 h,
CCN(CC)CCS(=O)(=O)[C@@H]1CCN2C(=O)c3coc(n3)CC(=O)C[C@H](O)/C=C(C)/C=C\CNC(=O)/C=C/[C@@H](C)[C@H](C(C)C)OC(=O)C12 (stereo partly drawn),0.41 h,0.39 L/kg,16 mL/min/kg,0.74 h,0.82
C[N+](C)(O)CCCN1c2ccccc2CCc2ccccc21,2.6 h,1.9 L/kg,12 mL/min/kg,1.8 h,
CC(=O)N(CC(O)CO)c1c(I)c(C(=O)NCC(O)CO)c(I)c(C(=O)NCC(O)CO)c1I (stereo not drawn),1.3 h,0.16 L/kg,2 mL/min/kg,1.5 h,1
CCc1ccc(Cc2ccc3c(c2)[C@]2(OC3)O[C@H](CO)[C@@H](O)[C@H](O)[C@H]2O)cc1,5.1 h,0.63 L/kg,2.07 mL/min/kg,4.7 h,0.46
CC(C)=CCC[C@]1(C)C=Cc2c(O)c3c(c(CC=C(C)C)c2O1)O[C@]12C(=CC4C[C@@H]1C(C)(C)O[C@@]2(C/C=C(/C)C(=O)O)C4=O)C3=O,13.3 h,0.99 L/kg,1.24 mL/min/kg,14.6 h,
O=C(NC1CC[C@@H](c2cccc(F)c2F)CN(CC(F)(F)F)C1=O)N1CCC(n2c(=O)[nH]c3ncccc32)CC1 (stereo partly drawn),2.5 h,0.86 L/kg,5.8 mL/min/kg,8.2 h,
CC(=O)Nc1c(I)c(NC(C)=O)c(I)c(C(=O)O)c1I,2.6 h,,1.7 mL/min/kg,,1
C=CCNc1nc(NCC=C)nc(N2CCN(C(c3ccc(F)cc3)c3ccc(F)cc3)CC2)n1,607 h,35.4 L/kg,0.97 mL/min/kg,1340 h,0.01
O=C(CCCN1CC=C(n2c(=O)[nH]c3ccccc32)CC1)c1ccc(F)cc1,2.73 h,1.41 L/kg,8.92 mL/min/kg,1.9 h,

Structure (SMILES),MRT,Vd,clearance,half-life,fraction unbound
CCON=C(C(=O)NC1C(=O)N2C(C(=O)[O-])=C(Sc3nc(-c4cc[n+](C)cc4)cs3)CS[C@H]12)c1nsc(NP(=O)(O)O)n1 (stereo partly drawn),0.11 h,0.53 L/kg,83.6 mL/min/kg,0.09 h,0.8
CC1(C)CC[C@]2(C(=O)O)CC[C@]3(COC(=O)C=Cc4cc(O)ccc4NC(=O)/C=C/C(=O)O)C(=CC[C@@H]4[C@@]5(C)CCC(=O)C(C)(C)[C@@H]5CC[C@]43C)[C@@H]2C1,3.18 h,1.45 L/kg,7.6 mL/min/kg,,
CC[N+]1(CC)CCC(=C(c2ccccc2)c2ccccc2)[C@@H]1C,2.5 h,1.87 L/kg,12.5 mL/min/kg,2.13 h,
O=C1CCc2ccc(OCCCCN3CCN(c4cccc(Cl)c4Cl)CC3)cc2N1,98 h,4.9 L/kg,0.83 mL/min/kg,75 h,
COc1cccc2c1[C@H](CO)N1[C@H](C#N)[C@@H]3CC(C(=O)O)[C@H]([C@@H]1C2)N3C (stereo partly drawn),1.23 h,0.23 L/kg,3.06 mL/min/kg,1.52 h,
CN(C)CC/C=C1/c2ccccc2Sc2ccc(Cl)cc21,20.7 h,13.7 L/kg,11.5 mL/min/kg,25.8 h,
O=C(O)C[C@@H]1CC[C@H](NC(=O)Cc2cccs2)B(O)O1,1.64 h,0.29 L/kg,2.94 mL/min/kg,1.34 h,0.67
COc1cc2c(N)nc(N3CCN(C(=O)OCC(C)(C)O)CC3)nc2c(OC)c1OC,3.1 h,0.18 L/kg,0.96 mL/min/kg,3.1 h,
CN[C@@H]1[C@@H](O)[C@@H](O[C@@H]2[C@@H](O)[C@H](O[C@H]3OC(CNCCO)=CC[C@H]3N)[C@@H](N)C[C@H]2NC(=O)C(O)CCN)OC[C@]1(C)O (stereo partly drawn),3.2 h,0.22 L/kg,1.14 mL/min/kg,3.4 h,0.84
CC(C)=CCC[C@](C)(O[C@@H]1O[C@H](CO)[C@@H](O)[C@H](O)[C@H]1O)[C@H]1CC[C@]2(C)[C@@H]1[C@H](O)C[C@@H]1[C@@]3(C)CC[C@H](O[C@@H]4O[C@H](CO)[C@@H](O)[C@H](O)[C@H]4O[C@@H]4O[C@H](CO)[C@@H](O)[C@H](O)[C@H]4O)C(C)(C)[C@@H]3CC[C@]12C,20.2 h,0.11 L/kg,0.09 mL/min/kg,18.5 h,
CCOP(=O)(OCC)[C@@H](NC(=O)[C@]1(O)[C@@H](O)[C@@]2(CC)C=CCN3CC[C@]4(c5cc([C@@]6(C(=O)OC)C[C@H]7C[N@@](CCc8c6[nH]c6ccccc86)C[C@@](O)(CC)C7)c(OC)cc5N(C)[C@@H]14)[C@@H]32)C(C)C,22.2 h,4.67 L/kg,3.5 mL/min/kg,34.3 h,0.1
CCCC(NC(C)C(=O)N1C(C(=O)O)C[C@@H]2CCCC[C@@H]21)C(=O)O (stereo partly drawn),7.6 h,,1.7 mL/min/kg,29 h,0.16
CCn1cc(C(=O)O)c(=O)c2cc(F)c(N3CCNCC3)cc21,4.5 h,1.88 L/kg,6.96 mL/min/kg,4.45 h,0.13
CN(c1nc2ccccc2s1)C1CCN(C[C@@H](O)COc2ccc(F)cc2)CC1,22.6 h,5.5 L/kg,4.05 mL/min/kg,18.9 h,0.014
CNC[C@H](O)CC12CCC(c3ccccc31)c1ccccc12,21.4 h,18.8 L/kg,14.6 mL/min/kg,18.8 h,
O=C(NCCN1CCOCC1)c1ccc(Cl)cc1,1.8 h,1.1 L/kg,10 mL/min/kg,1.5 h,
COc1cc2c(cc1O)CCN[C@]21CS[C@@H]2c3c(OC(C)=O)c(C)c4c(c3[C@H](COC1=O)N1[C@@H]2[C@H]2c3c(cc(C)c(OC)c3O)C[C@@H]([C@@H]1O)N2C)OCO4,35 h,25 L/kg,12 mL/min/kg,44 h,0.06
Cc1cnc(C(=O)NCCc2ccc(S(=O)(=O)NC(=O)NC3CCCCC3)cc2)cn1,4.8 h,,,,
C=CCN1CCCC1CNC(=O)c1cc2[nH]nnc2cc1OC (stereo not drawn),4 h,1.6 L/kg,6.6 mL/min/kg,2.8 h,
CC(N)CCCC(C)(C)O (stereo not drawn),3.24 h,2.14 L/kg,10.7 mL/min/kg,2.5 h,
Cc1onc(-c2c(Cl)cccc2Cl)c1C(=O)NC1C(=O)N2C(C(=O)O)C(C)(C)S[C@H]12 (stereo partly drawn),0.92 h,0.11 L/kg,2 mL/min/kg,0.88 h,
